In one data set the test system is T. mentagrophytes. Description: MIC, dose-dependent solid media assay. In kind it is cell-based, Trichophyton mentagrophytes. Conditions: Trichophyton mentagrophytes.
For the next data set, the system named is P. chrysogenum. Description: MIC, dose-dependent solid media assay. Type of data set: cell-based, Penicillium chrysogenum. Conditions: Penicillium chrysogenum.
Another data set deals with A. flavus. Description: MIC, dose-dependent solid media assay. In kind it is cell-based, Aspergillus flavus. Conditions: Aspergillus flavus.
The next data set has as its system C. albicans. Description: MIC, microbroth dilution. Type of data set: cell-based, Candida albicans. The note with it: Candida albicans. A general note: In broth dilution the organism is exposed to a series of concentrations in liquid medium.
Another data set concerns S. cerevisiae. Description: MIC, microbroth dilution. In kind it is cell-based, Saccharomyces cerevisiae. The note with it: Saccharomyces cerevisiae.
A further data set relates to B. cereus. Description: MIC, microbroth dilution. In kind it is cell-based, Bacillus cereus. The note with it: Bacillus cereus.
The test system of data set [1] is Methicillin resistant Staphylococcus aureus. Description: MIC, microbroth dilution. Type of data set: cell-based. Conditions: Staphylococcus aureus, S. aureus (MRSA).
A further data set concerns P. aeruginosa. Description: MIC, microbroth dilution. Type of data set: cell-based, Pseudomonas aeruginosa. Conditions: Pseudomonas aeruginosa.
In a further data set the test system is E. coli. Briefly: MIC, microbroth dilution. In kind it is cell-based, Escherichia coli. The note with it: Escherichia coli.
Data set [2] has as its system rat myoblast cells (H9c2). Briefly: Cell viability assay against H9c2 cell line. Type of data set: cell-based. Conditions: concentrations up to 100 μM, 24 h. As for the experimental part: (§1) In general, very little growth inhibition was observed against either Gram-positive or Gram-negative bacterial pathogens. […] The SAR for the antibacterial is dissimilar to that observed for the antifungal properties.
(§2) Figure 3 (A) Cell viability assay against H9c2 cell line at 100 μM for 24 h (normalized to PBS no treatment), (B) Hemolytic assay at 50 and 100 μM for 1 h (normalized to triton X-100 positive control). Error bars in both graphs represent standard error of mean (SEM) of replicates (n = 3).

The nature of a further data set: Hemolytic assay. Type of data set: cell-based. The note with it: 50 and 100 μM for 1 h. As for the experimental part: as §1, §2

Usually MIC stands for the lowest concentration that inhibits growth of the organism.

On to `CC(C)(C)c1ccc(C2=CCOB2O)cc1` [Compound 6w], for which the MIC against T. mentagrophytes was over 50 µg/mL; with T. mentagrophytes (value in parentheses), over 232 µM; in the data set on P. chrysogenum, 12.5 µg/mL; with P. chrysogenum (value in parentheses), 57.9 µM; against A. flavus it was over 50 µg/mL; with A. flavus (value in parentheses), over 232 µM. Moreover, the MIC against C. albicans was over 50 µg/mL; with C. albicans (value in parentheses), over 232 µM; with S. cerevisiae, over 50 µg/mL; in the data set on S. cerevisiae (value in parentheses), over 232 µM; in the data set on B. cereus it was over 50 µg/mL; in the data set with B. cereus (value in parentheses) it was over 232 µM. Further, the MIC in data set [1] was over 50 µg/mL; in [1] (value in parentheses), over 232 µM; in the data set with P. aeruginosa, over 50 µg/mL; with P. aeruginosa (value in parentheses), over 232 µM; against E. coli, over 50 µg/mL; in the data set with E. coli (value in parentheses) it was over 232 µM. The “cytotoxic effects against rat myoblast cells (H9c2)” value in data set [2] is “none”. In the data set “Hemolytic assay”, the hemolytic activity result was “none possessed hemolytic activity”.
As for `OB1OCC=C1c1ccc2ccccc2c1` [Compound 6q], the MIC in the data set with T. mentagrophytes is over 50 µg/mL; with T. mentagrophytes (value in parentheses), over 238 µM; with P. chrysogenum, 12.5 µg/mL; in the data set with P. chrysogenum (value in parentheses), 59.5 µM; against A. flavus, over 50 µg/mL; with A. flavus (value in parentheses), over 238 µM. Also, the MIC is over 50 µg/mL with C. albicans; over 238 µM in the data set with C. albicans (value in parentheses); over 50 µg/mL with S. cerevisiae; over 238 µM in the data set with S. cerevisiae (value in parentheses); over 50 µg/mL against B. cereus; over 238 µM in the data set on B. cereus (value in parentheses). The MIC in data set [1] was over 50 µg/mL; in data set [1] (value in parentheses), over 238 µM; with P. aeruginosa, over 50 µg/mL; in the data set with P. aeruginosa (value in parentheses), over 238 µM; in the data set on E. coli it was over 50 µg/mL; with E. coli (value in parentheses) it was over 238 µM. Further, in data set [2], the “cytotoxic effects against rat myoblast cells (H9c2)” value was “none”. Besides, in the data set “Hemolytic assay”, the hemolytic activity entry is “none possessed hemolytic activity”.
As to `OB1OCC=C1C1=CCCCC1` [Compound 6y], the MIC in the data set on T. mentagrophytes was over 50 µg/mL; in the data set on T. mentagrophytes (value in parentheses) it was over 305 µM; against P. chrysogenum, over 50 µg/mL; in the data set on P. chrysogenum (value in parentheses), over 305 µM; against A. flavus it was over 50 µg/mL; with A. flavus (value in parentheses), over 305 µM. The MIC in the data set with C. albicans was over 50 µg/mL; in the data set with C. albicans (value in parentheses), over 305 µM; in the data set with S. cerevisiae it was 21 ± 4 µg/mL; in the data set on S. cerevisiae (value in parentheses) it was 128 µM; in the data set with B. cereus it was over 50 µg/mL; in the data set on B. cereus (value in parentheses), over 305 µM. In addition, the minimum inhibitory concentration (MIC) in data set [1] is over 50 µg/mL; in data set [1] (value in parentheses), over 305 µM; with P. aeruginosa it was over 50 µg/mL; with P. aeruginosa (value in parentheses) it was over 305 µM; in the data set on E. coli it was over 50 µg/mL; in the data set on E. coli (value in parentheses), over 305 µM.
For `OB1OCc2cc(F)ccc21` [Compound 1, tavaborole, reference compound], the MIC against T. mentagrophytes is 0.78 µg/mL; in the data set on T. mentagrophytes (value in parentheses), 5.14 µM; in the data set with P. chrysogenum, 1 ± 0.3 µg/mL; with P. chrysogenum (value in parentheses), 6.58 µM; in the data set on A. flavus, 0.78 µg/mL; in the data set with A. flavus (value in parentheses) it was 5.14 µM. For the same compound, the MIC was 2.3 ± 0.8 µg/mL with C. albicans; 15.1 µM with C. albicans (value in parentheses); 0.26 ± 0.06 µg/mL in the data set with S. cerevisiae; 1.71 µM in the data set with S. cerevisiae (value in parentheses); over 50 µg/mL with B. cereus; over 329 µM with B. cereus (value in parentheses). For the same compound, the MIC in [1] is about 50 µg/mL; in [1] (value in parentheses) it was over 329 µM; against P. aeruginosa, over 50 µg/mL; with P. aeruginosa (value in parentheses) it was over 329 µM; against E. coli, 17 ± 4 µg/mL; with E. coli (value in parentheses), 112 µM.
Take `C[C@@H]1C[C@@H]([C@H](O)CC2CC(=O)NC(=O)C2)C(=O)[C@@H](C)C1` [Cycloheximide, reference compound]: the minimal inhibitory concentration (MIC) is over 50 µg/mL in the data set with T. mentagrophytes; over 178 µM in the data set on T. mentagrophytes (value in parentheses); 12.5 µg/mL against P. chrysogenum; 44.4 µM in the data set on P. chrysogenum (value in parentheses); over 50 µg/mL in the data set with A. flavus; over 178 µM in the data set on A. flavus (value in parentheses). Also, the MIC against C. albicans was over 50 µg/mL; in the data set with C. albicans (value in parentheses) it was over 178 µM; against S. cerevisiae, 1.56 µg/mL; in the data set on S. cerevisiae (value in parentheses), 5.54 µM; in the data set on B. cereus, over 50 µg/mL; in the data set with B. cereus (value in parentheses), over 178 µM. Further, the MIC was over 50 µg/mL in [1]; over 178 µM in data set [1] (value in parentheses); over 50 µg/mL with P. aeruginosa; over 178 µM in the data set with P. aeruginosa (value in parentheses); over 50 µg/mL in the data set with E. coli; over 178 µM with E. coli (value in parentheses).
